Measured values from patent US20090274675A1, “Migraine tonic” (priority 2008, published 2009).

Experiments:
[1] = system: migraine headache; conditions: several clinical trials in the U.S and Europe; cited from earlier work
[2] = system: women suffering from severe migraine; assay: Intravenous magnesium in intra-partum and post-partum women with severe migraine; type: in vivo, human; conditions: intravenous injection
Method: Use of magnesium is useful to control this neuronal excitability, which is one factor that perpetuates migraine. […] In this invention the unit dosage of Magnesium Citrate to be used is 250 to 500 mg. per total formulation dosage.

Structure (SMILES) | improvement in migraine headache [1] | effect on severe migraine [2]
Cc1cc2nc3c(=O)[nH]c(=O)nc-3n(C[C@H](O)[C@H](O)[C@H](O)CO)c2cc1C [riboflavin, Riboflavin] | statistically significant | –
[Mg+2] [magnesium, Magnesium] | – | dramatic effect
